{"source": "patent US20180263996A1", "about": "“ARYL SULTAM DERIVATIVES AS RORc MODULATORS” (Genentech, Inc., priority 2015, published 2018)", "data": [{"biological_target": "T1, RORc (Homo sapiens, UniProt P51449)", "T1 construct": "host or cells: E. coli", "T1 sequence (P51449 269-508 limits assumed)": "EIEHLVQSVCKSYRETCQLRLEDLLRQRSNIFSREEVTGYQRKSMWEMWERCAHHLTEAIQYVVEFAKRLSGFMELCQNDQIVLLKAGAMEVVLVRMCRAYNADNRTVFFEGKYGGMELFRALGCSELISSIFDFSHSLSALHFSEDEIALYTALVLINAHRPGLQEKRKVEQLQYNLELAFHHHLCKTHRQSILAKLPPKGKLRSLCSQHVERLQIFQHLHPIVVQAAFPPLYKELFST", "experiment": "In Vitro RORc Ligand Binding Assay", "details": "IC50 values for RORc", "experimental": "This assay was used to determine a compound's potency in inhibiting activity of RORc by determining, Kiapp, IC50, or percent inhibition values.\nOn day of the assay, 100 uL of 0.05% CHAPS (in deionized H2O) was added to all wells of the GFB Unifilter plate and allowed soak for 1 h. A wash buffer of 50 mM HEPES (pH 7.4), 150 mM NaCl, and 5 mM MgCl2 was prepared to wash the filter plate. To prepare an assay buffer, BSA was added to the wash buffer to reach 0.01% and DTT was added to reach 1 mM.\nThe 20× compound stocks were diluted in DMSO with Assay Buffer 4-fold to reach 5× the final test concentration in 25% DMSO (10 uL compound+30 uL Assay Buffer). Solutions were mixed by aspiration several times with a pipette set on 50 uL volume.\nFor two point screening, 10 mM stock compound solutions were diluted in DMSO to obtain 200 uM (20× the high test concentration) and then diluted 10-fold further to reach 20 uM (20× the low test concentration). The 20× stocks were diluted 4-fold with Assay Buffer (10 uL compound+30 uL Assay Buffer) to reach 5× the test concentrations (50 uM and 5 uM) and 10 uL were added to two assay plates for the duplicate wells. With each concentration tested on 2 plates, each set of 80 compounds used 4 assay plates (1 uM and 10 uM, with n=2).\nFor 25-hydroxycholesterol in 25% DMSO/75% Assay Buffer; 10 uL per well was used for NSB samples. Wells for Total Binding and No Receptor sample determination contained 10 uL of 25% DMSO/75% Assay Buffer per well.\nAdd 20 uL to all wells to reach 6 nM final concentration in the assay.\nStock receptor solution was diluted in assay buffer to obtain 1.5 ug/mL in Assay Buffer. 20 uL was added to all wells. For No Receptor samples, 20 uL Assay Buffer was substituted for receptor solution.\nAssay plates were 96-well polypropylene V-bottom plates. […] 10 uL of 25% DMSO/75% Assay Buffer was added to Total Binding or No Receptor wells. 10 uL of 5 uM 25-hydroxycholesterol in 25% DMSO/75% Assay Buffer was added to NSB wells. […] 20 uL of 1.5 ug/mL RORc receptor was added to wells (or 40 uL Assay Buffer to No R wells). Following addition to the wells, the plates were incubated 3 h at 25° C.\nUsing a Packard Filtermate Harvester, the filter plate were washed 4 times following transfer of the incubated samples. Plates were dry-filtered completely (2 h at 50° C. or overnight at room temperature). 50 uL Microscint 0 was added to all wells and read on Topcount protocol Inverted.\nFinal concentrations were as follows: 50 mM HEPES buffer (pH 7.4); 150 mM NaCl; 1 mM DTT; 5 mM MgCl2; 0.01% BSA; 5% DMSO; 0.6 ug/mL RORc receptor; 6 nM 25-[^3H]hydroxycholesterol. For NSB wells, 1 uM 25-hydroxycholesterol was also present.", "units": {"IC50": "nM"}, "values": [{"compound": "CC(NCc1cocn1)c1cc(F)c(CN2[C@@H](C)CC[C@H](c3ccccc3)S2(=O)=O)cc1F", "note": "(stereo partly drawn) [Compound 54, 1-[2,5-difluoro-4-[[(3S,6R)-3-methyl-1,1-dioxo-6-phenyl-thiazinan-2-yl]methyl]phenyl]-N-(oxazol-4-ylmethyl)ethanamine]", "IC50": 255}, {"compound": "CC(NC(=O)c1ccnn1C)c1cc(F)c(CN2[C@@H](C)CC[C@H](c3ccccc3)S2(=O)=O)cc1F", "note": "(stereo in doubt) [Compound 69, N-[1-[2,5-difluoro-4-[[(3S,6R)-3-methyl-1,1-dioxo-6-phenyl-thiazinan-2-yl]methyl]phenyl]ethyl]-2-methyl-pyrazole-3-carboxamide]", "IC50": 74.5}, {"compound": "C[C@H]1CC[C@H](c2ccccc2)S(=O)(=O)N1Cc1cc(F)c([C@@H](OC2COC2)C(N)=O)cc1F", "note": "[Compound 8, (2R)-2-[2,5-difluoro-4-[[(3S,6R)-3-methyl-1,1-dioxo-6-phenyl-thiazinan-2-yl]methyl]phenyl]-2-(oxetan-3-yloxy)acetamide]", "IC50": 31}, {"compound": "C[C@H]1CC[C@H](c2ccccc2)S(=O)(=O)N1Cc1cc(F)c([C@H](CCC#N)C(N)=O)cc1F", "note": "[Compound 16, (2S)-4-cyano-2-[2,5-difluoro-4-[[(3S,6R)-3-methyl-1,1-dioxo-6-phenyl-thiazinan-2-yl]methyl]phenyl]butanamide]", "IC50": 56.8}, {"compound": "CC(NC(=O)c1cn(C)cn1)c1cc(F)c(CN2[C@@H](C)CC[C@H](c3ccccc3)S2(=O)=O)cc1F", "note": "(stereo in doubt) [Compound 62, N-[1-[2,5-difluoro-4-[[(3S,6R)-3-methyl-1,1-dioxo-6-phenyl-thiazinan-2-yl]methyl]phenyl]ethyl]-1-methyl-imidazole-4-carboxamide]", "IC50": 389}, {"compound": "CC(NC(=O)c1cnco1)c1cc(F)c(CN2[C@@H](C)CC[C@H](c3ccccc3)S2(=O)=O)cc1F", "note": "(stereo in doubt) [Compound 75, N-[1-[2,5-difluoro-4-[[(3S,6R)-3-methyl-1,1-dioxo-6-phenyl-thiazinan-2-yl]methyl]phenyl]ethyl]oxazole-5-carboxamide]", "IC50": 76.1}, {"compound": "Cc1ncoc1C(=O)NC(C)c1cc(F)c(CN2[C@@H](C)CC[C@H](c3ccccc3)S2(=O)=O)cc1F", "note": "(stereo in doubt) [Compound 64, N-[1-[2,5-difluoro-4-[[(3S,6R)-3-methyl-1,1-dioxo-6-phenyl-thiazinan-2-yl]methyl]phenyl]ethyl]-4-methyl-oxazole-5-carboxamide]", "IC50": 231}, {"compound": "C[C@H]1CC[C@H](c2ccccc2)S(=O)(=O)N1Cc1cc(F)c([C@](C)(CO)C(N)=O)cc1F", "note": "[Compound 11, (2R)-2-[2,5-difluoro-4-[[(3S,6R)-3-methyl-1,1-dioxo-6-phenyl-thiazinan-2-yl]methyl]phenyl]-3-hydroxy-2-methyl-propanamide]", "IC50": 18.7}, {"compound": "C[C@H]1CC[C@H](c2ccccc2)S(=O)(=O)N1Cc1cc(F)c([C@@H](CC2COC2)C(N)=O)cc1F", "note": "[Compound 5, (2R)-2-[2,5-difluoro-4-[[(3S,6R)-3-methyl-1,1-dioxo-6-phenyl-thiazinan-2-yl]methyl]phenyl]-3-(oxetan-3-yl)propanamide]", "IC50": 31}, {"compound": "Cc1cc(C(=O)NC(C)c2cc(F)c(CN3[C@@H](C)CC[C@H](c4ccccc4)S3(=O)=O)cc2F)no1", "note": "(stereo in doubt) [Compound 51, N-[1-[2,5-difluoro-4-[[(3S,6R)-3-methyl-1,1-dioxo-6-phenyl-thiazinan-2-yl]methyl]phenyl]ethyl]-5-methyl-isoxazole-3-carboxamide]", "IC50": 7}, {"compound": "Cc1nocc1C(=O)NC(C)c1cc(F)c(CN2[C@@H](C)CC[C@H](c3ccccc3)S2(=O)=O)cc1F", "note": "(stereo in doubt) [Compound 60, N-[1-[2,5-difluoro-4-[[(3S,6R)-3-methyl-1,1-dioxo-6-phenyl-thiazinan-2-yl]methyl]phenyl]ethyl]-3-methyl-isoxazole-4-carboxamide]", "IC50": 54.5}, {"compound": "C[C@H]1CC[C@H](c2ccccc2)S(=O)(=O)N1Cc1cc(F)c([C@@H](CCC#N)C(N)=O)cc1F", "note": "[Compound 17, (2R)-4-cyano-2-[2,5-difluoro-4-[[(3S,6R)-3-methyl-1,1-dioxo-6-phenyl-thiazinan-2-yl]methyl]phenyl]butanamide]", "IC50": 82.7}, {"compound": "C[C@H]1CC[C@H](c2ccccc2)S(=O)(=O)N1Cc1cc(F)c(C2(C(N)=O)CC(CC#N)C2)cc1F", "note": "(stereo partly drawn) [Compound 44, 3-(cyanomethyl)-1-[2,5-difluoro-4-[[(3S,6R)-3-methyl-1,1-dioxo-6-phenyl-thiazinan-2-yl]methyl]phenyl]cyclobutane-carboxamide]", "IC50": 18.5}, {"compound": "CC(NC(=O)c1cncnc1)c1cc(F)c(CN2[C@@H](C)CC[C@H](c3ccccc3)S2(=O)=O)cc1F", "note": "(stereo in doubt) [Compound 63, N-[1-[2,5-difluoro-4-[[(3S,6R)-3-methyl-1,1-dioxo-6-phenyl-thiazinan-2-yl]methyl]phenyl]ethyl]pyrimidine-5-carboxamide]", "IC50": 8.3}, {"compound": "CC(NC(=O)c1cnccn1)c1cc(F)c(CN2[C@@H](C)CC[C@H](c3ccccc3)S2(=O)=O)cc1F", "note": "(stereo in doubt) [Compound 57, N-[1-[2,5-difluoro-4-[[(3S,6R)-3-methyl-1,1-dioxo-6-phenyl-thiazinan-2-yl]methyl]phenyl]ethyl]pyrazine-2-carboxamide]", "IC50": 145}, {"compound": "C[C@H]1CC[C@H](c2ccccc2)S(=O)(=O)N1Cc1cc(F)c(C2(C(=O)N[C@H]3C[C@H](O)C3)CCOCC2)cc1F", "note": "[Compound 37, 4-[2,5-difluoro-4-[[(3S,6R)-3-methyl-1,1-dioxo-6-phenyl-thiazinan-2-yl]methyl]phenyl]-N-(3-hydroxycyclobutyl) tetrahydropyran-4-carboxamide]", "IC50": 47.6}, {"compound": "Cc1cc(C(=O)NC(C)c2cc(F)c(CN3[C@@H](C)CC[C@H](c4ccccc4)S3(=O)=O)cc2F)on1", "note": "(stereo in doubt) [Compound 67, N-[1-[2,5-difluoro-4-[[(3S,6R)-3-methyl-1,1-dioxo-6-phenyl-thiazinan-2-yl]methyl]phenyl]ethyl]-3-methyl-isoxazole-5-carboxamide]", "IC50": 6.5}, {"compound": "C[C@H]1CC[C@H](c2ccccc2)S(=O)(=O)N1Cc1cc(F)c(C(C)(C)NCC(N)=O)cc1F", "note": "[Compound 20, 2-[[1-[2,5-difluoro-4-[[(3S,6R)-3-methyl-1,1-dioxo-6-phenyl-thiazinan-2-yl]methyl]phenyl]-1-methyl-ethyl]amino]acetamide]", "IC50": 4.2}, {"compound": "C[C@H]1CC[C@H](c2ccccc2)S(=O)(=O)N1Cc1cc(F)c([C@@H](OCC2CC2)C(N)=O)cc1F", "note": "[Compound 18, (2R)-2-(cyclopropylmethoxy)-2-[2,5-difluoro-4-[[(3S,6R)-3-methyl-1,1-dioxo-6-phenyl-thiazinan-2-yl]methyl]phenyl]acetamide]", "IC50": 30.1}, {"compound": "C[C@H]1CC[C@H](c2ccccc2)S(=O)(=O)N1Cc1cc(F)c(C2(NCC(N)=O)CC(F)(F)C2)cc1F", "note": "[Compound 21, 2-[[1-[2,5-difluoro-4-[[(3S,6R)-3-methyl-1,1-dioxo-6-phenyl-thiazinan-2-yl]methyl]phenyl]-3,3-difluoro-cyclobutyl]amino]acetamide]", "IC50": 1.5}, {"compound": "CC(NCC(N)=O)c1cc(F)c(CN2[C@@H](C)CC[C@H](c3ccccc3)S2(=O)=O)cc1F", "note": "(stereo partly drawn) [Compound 29, 2-[1-[2,5-difluoro-4-[[(3S,6R)-3-methyl-1,1-dioxo-6-phenyl-thiazinan-2-yl]methyl]phenyl]ethylamino] acetamide]", "IC50": 56.4}, {"compound": "C[C@H](NC1=CC(=O)CCC1)c1cc(F)c(CN2[C@@H](C)CC[C@H](c3ccccc3)S2(=O)=O)cc1F", "note": "[Compound 26, 3-[[(1S)-1-[2,5-difluoro-4-[[(3S,6R)-3-methyl-1,1-dioxo-6-phenyl-thiazinan-2-yl]methyl]phenyl]ethyl]amino] cyclohex-2-en-1-one]", "IC50": 131}]}]}
